From the supplement of paper PMC8671470

Experiments:
Conditions in all cases: 72 h
HL-60 [1] = assay: cell viability (% survival relative to DMSO control); higher = less cytotoxic
Summary of the method: (§1)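 Four-parameter log-logistic fits in drc and PharmacoGx supplied area under the curve where it is given. Underlying viability came from CellTiter-Glo, normalised to DMSO and proteasome-inhibitor wells, with the proteasome inhibitor at 10 μM. HL-60 cells in RPMI 1640 plus 10% FBS had been rescreened against the full library at five tenfold concentrations of 1–10,000 nM, in duplicate on 384-well plates, with DMSO or 100 nM of one of three metabolic inhibitors, for 72 h at 37 °C, 5% CO2.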

HL-60 [2] = assay: area under dose-response curve (viability, 1 nM-10 uM) (fraction (0-1)); higher = more sensitive
Summary of the method: as §1

[3] = system: myeloid leukemia patient primary cells Pat.10; assay: cell viability (% survival relative to DMSO control); higher = less cytotoxic
Summary of the method: (§2)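 Where an area under the curve appears, it was computed with the drc and PharmacoGx R packages from log-logistic fits. Those fits used four parameters. The underlying viability data came from CellTiter-Glo after 72 h, normalised to DMSO and 10 μM proteasome-inhibitor wells, with thawed, Ficoll-purified AML or CML patient mononuclear cells at 10,000 cells/well in RPMI 1640 with 10% FBS on 384-well plates pre-printed with 70 compounds at five tenfold concentrations (1–10,000 nM) in duplicate.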

[4] = system: myeloid leukemia patient primary cells Pat.11; assay: as above
Summary of the method: as §2

[5] = system: myeloid leukemia patient primary cells Pat.12; assay: as above
Summary of the method: as §2

[6] = system: myeloid leukemia patient primary cells Pat.13; assay: as above
Summary of the method: as §2

[7] = system: myeloid leukemia patient primary cells Pat.14; assay: as above
Summary of the method: as §2

[8] = system: myeloid leukemia patient primary cells Pat.15; assay: as above
Summary of the method: as §2

[9] = system: myeloid leukemia patient primary cells Pat.1; assay: as above
Summary of the method: as §2

[10] = system: myeloid leukemia patient primary cells Pat.2; assay: as above
Summary of the method: as §2

[11] = system: myeloid leukemia patient primary cells Pat.3; assay: as above
Summary of the method: as §2

[12] = system: myeloid leukemia patient primary cells Pat.4; assay: as above
Summary of the method: as §2

[13] = system: myeloid leukemia patient primary cells Pat.5; assay: as above
Summary of the method: as §2

[14] = system: myeloid leukemia patient primary cells Pat.6; assay: as above
Summary of the method: as §2

[15] = system: myeloid leukemia patient primary cells Pat.7; assay: as above
Summary of the method: as §2

[16] = system: myeloid leukemia patient primary cells Pat.8; assay: as above
Summary of the method: as §2

[17] = system: myeloid leukemia patient primary cells Pat.9; assay: as above
Summary of the method: as §2

[18] = system: myeloid leukemia patient primary cells Pat.10; assay: area under dose-response curve (viability, 1 nM-10 uM) (fraction (0-1)); higher = more sensitive
Procedure: (§3)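 AUC (0–1, higher = more sensitive) of the 5-point dose–response (1 nM–10 µM, 72 h, CellTiter-Glo) in primary AML/CML patient mononuclear cells. 0.030103 is the floor for inactive compounds.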

[19] = system: myeloid leukemia patient primary cells Pat.11; assay: as above
Procedure: as §3

[20] = system: myeloid leukemia patient primary cells Pat.12; assay: as above
Procedure: as §3

[21] = system: myeloid leukemia patient primary cells Pat.13; assay: as above
Procedure: as §3

[22] = system: myeloid leukemia patient primary cells Pat.14; assay: as above
Procedure: as §3

[23] = system: myeloid leukemia patient primary cells Pat.15; assay: as above
Procedure: as §3

[24] = system: myeloid leukemia patient primary cells Pat.1; assay: as above
Procedure: as §3

[25] = system: myeloid leukemia patient primary cells Pat.2; assay: as above
Procedure: as §3

[26] = system: myeloid leukemia patient primary cells Pat.3; assay: as above
Procedure: as §3

[27] = system: myeloid leukemia patient primary cells Pat.4; assay: as above
Procedure: as §3

[28] = system: myeloid leukemia patient primary cells Pat.5; assay: as above
Procedure: as §3

[29] = system: myeloid leukemia patient primary cells Pat.6; assay: as above
Procedure: as §3

[30] = system: myeloid leukemia patient primary cells Pat.7; assay: as above
Procedure: as §3

[31] = system: myeloid leukemia patient primary cells Pat.8; assay: as above
Procedure: as §3

[32] = system: myeloid leukemia patient primary cells Pat.9; assay: as above
Procedure: as §3

Cn1cc(-c2ccncc2)c(-c2ccc(OCc3ccc4ccccc4n3)cc2)n1
cell viability [%], HL-60 [1]
Conditions | 0.001 µM | 0.01 µM | 0.1 µM | 1 µM | 10 µM
co-treatment: AZD3965 100 nM | 94.1 | 101 | 101 | 96.7 | 103
co-treatment: DMSO vehicle | 99.1 | 94.8 | 102 | 98.248 | 101
co-treatment: GSK2194069 100 nM | 103 | 101 | 107 | 90.9 | 81.8
co-treatment: pictilisib 100 nM | 98.7 | 101 | 114 | 94.4 | 107

HL-60 [2]
Conditions | area under dose-response curve
co-treatment: AZD3965 100 nM | < 0.0301
co-treatment: DMSO vehicle | < 0.0301
co-treatment: GSK2194069 100 nM | 0.05
co-treatment: pictilisib 100 nM | 0.05

O=C(O)C(=S)Cc1c[nH]c2ccc(F)cc12
cell viability [%], HL-60 [1]
Conditions | 0.001 µM | 0.01 µM | 0.1 µM | 1 µM | 10 µM
co-treatment: AZD3965 100 nM | 94 | 98.2 | 106 | 103 | 101.9
co-treatment: DMSO vehicle | 99.1 | 101 | 106 | 102 | 104
co-treatment: GSK2194069 100 nM | 90.8 | 101 | 103 | 104 | 104
co-treatment: pictilisib 100 nM | 91.7 | 99.9 | 101.8 | 101 | 97.2

HL-60 [2]
Conditions | area under dose-response curve
co-treatment: AZD3965 100 nM | < 0.0301
co-treatment: DMSO vehicle | < 0.0301
co-treatment: GSK2194069 100 nM | < 0.0301
co-treatment: pictilisib 100 nM | < 0.0301

CN(C)C(=O)n1nnnc1Cc1ccc(-c2ccccc2)cc1
cell viability [%]
Conditions | 1 nM | 10 nM | 100 nM | 1000 nM | 10000 nM
[3] | 96.5 | 75.2 | > 100 | 20.7 | 15.5
[4] | > 100 | 87.4 | 91.7 | 93.6 | 22
[5] | 94.7 | 91.7 | 90.7 | 93 | 41.2
[6] | 84.1 | 60.2 | 92.1 | 87.3 | 7.43
[7] | 97.8 | 63.7 | 95.5 | 32 | 0.671
[8] | 94.8 | 96 | 96.2 | 89.5 | 29.8
[9] | 98.5 | 74.4 | 89.4 | 87.9 | 4.27
[10] | 97.7 | 78.6 | > 100 | 99.1 | 37.3
[11] | > 100 | 64.8 | 82.7 | 30.3 | 2.63
[12] | 97.2 | 81 | 84.8 | > 100 | 2.63
[13] | 60.8 | 1.18 | 63 | 1.33 | 2.24
[14] | > 100 | 70.8 | 97.7 | > 100 | 21.8
[15] | > 100 | 38.7 | 73.7 | 24.8 | 13.2
[16] | 99.4 | 97.5 | 71.9 | 85.5 | 4.49
[17] | 64 | 5.6 | 60.2 | 9.03 | 0.492

Conditions | area under dose-response curve
[18] | 0.298
[19] | 0.0778
[20] | 0.044
[21] | 0.105
[22] | 0.277
[23] | 0.0943
[24] | 0.124
[25] | 0.0497
[26] | 0.278
[27] | 0.115
[28] | 0.798
[29] | 0.0748
[30] | 0.331
[31] | 0.132
[32] | 0.766
